Key:
[1] = target: T1, Amine oxidase [flavin-containing] A (Homo sapiens, UniProt P21397); assay: (§1) SSAO Activity Assay: Amine oxidase activity of recombinant hSSAO, hMAO-A, and hMAO-B isoforms are measured using the MAO-Glo assay kit (Promega, V1402). Ten nL test compounds (with DMSO as vehicle, 0.1% v/v for hSSAO, hMAO-A and hMAO-B) were added into assay plates by Echo, and pre-incubated with 5 μL of enzyme for 30 mins at room temperature before the addition of 5 μL of luminogenic substrate. The substrate concentration is 40 μM for human recombinant SSAO, 40 μM for human recombinant MAO-A, and 4 μM for human recombinant MAO-B. The hSSAO and hMAO-A assays were conducted in the MAO-A reaction buffer in the kit, and the MAO-B assay was conducted in the MAO-B reaction buffer. Oxidation of the substrate was conducted for 1 hr, before the addition of detecting reagent according the manufacture's protocol. The IC50 value of the tested compounds was calculated by fitting the dose response curve using a 4-parameter non-linear regression routine.
T1 sequence (P21397 whole entry): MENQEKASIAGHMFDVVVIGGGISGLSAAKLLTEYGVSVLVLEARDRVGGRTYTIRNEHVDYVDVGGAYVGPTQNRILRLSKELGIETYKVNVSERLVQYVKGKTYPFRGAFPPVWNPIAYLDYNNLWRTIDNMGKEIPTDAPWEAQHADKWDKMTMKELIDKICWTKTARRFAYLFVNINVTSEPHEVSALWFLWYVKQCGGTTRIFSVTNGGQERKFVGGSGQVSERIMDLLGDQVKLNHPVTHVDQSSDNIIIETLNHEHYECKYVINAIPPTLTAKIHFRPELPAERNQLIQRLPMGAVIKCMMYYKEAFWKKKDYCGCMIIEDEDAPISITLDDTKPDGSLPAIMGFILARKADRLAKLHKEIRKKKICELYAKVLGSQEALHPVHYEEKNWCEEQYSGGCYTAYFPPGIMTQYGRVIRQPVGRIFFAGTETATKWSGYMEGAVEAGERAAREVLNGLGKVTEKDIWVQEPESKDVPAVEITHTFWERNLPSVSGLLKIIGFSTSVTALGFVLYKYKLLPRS

[2] = target: T2, Amine oxidase [flavin-containing] B (Homo sapiens, UniProt P27338); assay: as §1
T2 sequence (P27338 whole entry): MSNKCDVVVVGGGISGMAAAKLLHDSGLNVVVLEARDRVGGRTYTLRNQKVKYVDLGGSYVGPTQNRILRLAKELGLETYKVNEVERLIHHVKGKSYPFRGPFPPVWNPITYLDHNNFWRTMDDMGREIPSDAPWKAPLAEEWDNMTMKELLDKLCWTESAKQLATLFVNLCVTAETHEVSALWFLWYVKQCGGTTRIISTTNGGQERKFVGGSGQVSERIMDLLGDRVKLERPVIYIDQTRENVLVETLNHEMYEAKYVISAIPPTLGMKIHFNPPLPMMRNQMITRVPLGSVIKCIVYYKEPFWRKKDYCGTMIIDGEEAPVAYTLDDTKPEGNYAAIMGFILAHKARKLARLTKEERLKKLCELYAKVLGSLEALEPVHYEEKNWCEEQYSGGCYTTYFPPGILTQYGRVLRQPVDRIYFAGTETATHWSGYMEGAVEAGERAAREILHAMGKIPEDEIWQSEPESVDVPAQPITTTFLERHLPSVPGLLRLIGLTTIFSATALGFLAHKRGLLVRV

| IC50 [1] [µM] | IC50 [2] [µM] | SMILES |
| --- | --- | --- |
| < 10 |  | CC(C)(C)C(=O)NC12CCC(CS(=O)(=O)c3ccc(OC/C(=C/F)CN)cc3)(CC1)C2 |
| > 30 |  | NC/C(=C\F)COc1ccc(S(=O)(=O)CC23CCC(C4(O)CC4)(CC2)CC3)cc1 |
|  | < 10 | N#CC1(CS(=O)(=O)c2ccc(OC/C(=C/F)CN)cc2)CCOCC1 |
| > 30 | > 30 | CCN(CC(C)CS(=O)(=O)c1ccc(OC/C(=C/F)CN)cc1)C(=O)C(C)C (centres undefined) |
| > 30 | < 10 | COC1(CS(=O)(=O)c2ccc(OC/C(=C/F)CN)cc2)CCOCC1 |
| > 30 |  | NC/C(=C\F)COc1ccc(S(=O)(=O)CC23CCC(NC(=O)C4CC4)(CC2)CC3)cc1 |
| > 30 | > 30 | C[C@@H](CN1CCCCC1=O)CS(=O)(=O)c1ccc(OC/C(=C/F)CN)cc1 |
| > 30 |  | CC1CCN(C23CCC(CS(=O)(=O)c4ccc(OC/C(=C/F)CN)cc4)(CC2)CC3)C1=O (centres undefined) |
| > 30 | < 10 | NC/C(=C\F)COc1ccc(S(=O)(=O)CC2CCOCC2)cc1 |
| > 30 | > 30 | NC/C(=C\F)COc1ccc(S(=O)(=O)CC23CCC(C(=O)N4CCC(F)(F)CC4)(CC2)CC3)cc1 |
|  | < 10 | CC1(CS(=O)(=O)c2ccc(OC/C(=C/F)CN)cc2)CCN(C(=O)C2(C)CC2)CC1 |
| > 30 | > 30 | NC/C(=C\F)COc1ccc(S(=O)(=O)CC23CCC(NC(=O)CC(F)(F)F)(CC2)CC3)cc1 |
| > 30 | > 30 | C[C@@H](CN1CCCC1=O)CS(=O)(=O)c1ccc(OC/C(=C/F)CN)cc1 |
| > 30 |  | CC(C)C(=O)N(C)CC(C)(C)CS(=O)(=O)c1ccc(OC/C(=C/F)CN)cc1 |
| > 30 | > 30 | NC/C(=C\F)COc1ccc(S(=O)(=O)CC23CCC(C4(NC(=O)C5CC5)CC4)(CC2)CC3)cc1 |
| < 10 | < 10 | NC/C(=C\F)COc1ccc(S(=O)(=O)C[C@H]2CC[C@@H](O)CC2)cc1 |
| > 30 | < 10 | NC/C(=C\F)COc1ccc(S(=O)(=O)C[C@@H]2CCCO2)cc1 |
| > 30 | < 10 | NC/C(=C\F)COc1ccc(S(=O)(=O)C[C@H]2CCCO2)cc1 |
| > 30 |  | NC/C(=C\F)COc1ccc(S(=O)(=O)Cc2ccc(C(=O)NC3CCC3)c(C(F)(F)F)c2)cc1 |
| > 30 |  | CCN(CC(C)(C)CS(=O)(=O)c1ccc(OC/C(=C/F)CN)cc1)C(=O)C(C)C |
| 10 to 30 | < 10 | NC/C(=C\F)COc1ccc(S(=O)(=O)C[C@@H]2CCOC2)cc1 |
| > 30 | < 10 | CC(C)n1ccc(CS(=O)(=O)c2ccc(OC/C(=C/F)CN)cc2)cc1=O |
|  | > 30 | CC(C)C(=O)N1CCC(CS(=O)(=O)c2ccc(OC/C(=C/F)CN)cc2)C1 (centres undefined) |

The next lines start with the molecule.

| SMILES | IC50 [1] [µM] | IC50 [2] [µM] |
| --- | --- | --- |
| CC(C)(C)C(=O)N1CCC(CS(=O)(=O)c2ccc(OC/C(=C/F)CN)cc2)CC1 | > 30 | > 30 |
| CN(C(=O)C1CC1)C12CCC(CS(=O)(=O)c3ccc(OC/C(=C/F)CN)cc3)(CC1)CC2 | > 30 | > 30 |
| NC/C(=C\F)COc1ccc(S(=O)(=O)CC2CCOCC2)c(F)c1 | < 10 | < 10 |
| NC/C(=C\F)COc1ccc(S(=O)(=O)COCC2CCOCC2)cc1 | > 30 | 10 to 30 |
| COCC(COC)OCS(=O)(=O)c1ccc(OC/C(=C/F)CN)cc1 | > 30 | < 10 |
| CO[C@H]1CC[C@@H](CS(=O)(=O)c2ccc(OC/C(=C/F)CN)cc2)CC1 | 10 to 30 | 10 to 30 |
| CC1(C)COC(CS(=O)(=O)c2ccc(OC/C(=C/F)CN)cc2)CO1 (centres undefined) | > 30 | < 10 |
| C[C@H](CN1CCCCC1=O)CS(=O)(=O)c1ccc(OC/C(=C/F)CN)cc1 | > 30 | > 30 |
| NC/C(=C\F)COc1ccc(S(=O)(=O)C[C@H]2CC[C@H](O)CC2)cc1 | 10 to 30 | 10 to 30 |
| CC(C)n1nc(CS(=O)(=O)c2ccc(OC/C(=C/F)CN)cc2)ccc1=O | > 30 | < 10 |
| COCCOCS(=O)(=O)c1ccc(OC/C(=C/F)CN)cc1 | > 30 | > 30 |
| COCC(COC)CS(=O)(=O)c1ccc(OC/C(=C/F)CN)cc1 | > 30 | < 10 |
| NC/C(=C\F)COc1ccc(S(=O)(=O)CC2CCN(C(=O)C3CC3)CC2)c(Cl)c1 | > 30 | > 30 |
| NC/C(=C\F)COc1ccc(S(=O)(=O)CC23CCC(O)(CC2)CC3)cc1 | > 30 |  |
| NC/C(=C\F)COc1ccc(S(=O)(=O)CC23CCC(N4CCCS4(=O)=O)(CC2)CC3)cc1 | > 30 | > 30 |
| NC/C(=C\F)COc1ccc(S(=O)(=O)COCC2CCN(C(=O)C3(C(F)(F)F)CC3)CC2)cc1 | > 30 |  |
| NC/C(=C\F)COc1ccc(S(=O)(=O)COC2CCN(C(=O)C3CCCC3)CC2)cc1 | > 30 | > 30 |
| CC(C)C(=O)Nc1ccc(CS(=O)(=O)c2ccc(OC/C(=C/F)CN)cc2)cc1 | > 30 | < 10 |
| CC(C)C(=O)N1CC(CS(=O)(=O)c2ccc(OC/C(=C/F)CN)cc2)C1 | > 30 | < 10 |
| CC(C)(C)C(=O)N1CCN(CS(=O)(=O)c2ccc(OC/C(=C/F)CN)cc2)C(=O)C1 |  | < 10 |
| NC/C(=C\F)COc1ccc(S(=O)(=O)COC2CCOCC2)cc1 | > 30 | < 10 |
| NC/C(=C\F)COc1ccc(S(=O)(=O)CC23CCC(C(=O)NC4CCC4)(CC2)CC3)cc1 | > 30 |  |
| NC/C(=C\F)COc1ccc(S(=O)(=O)C[C@H]2CCOC2)cc1 | 10 to 30 | < 10 |

| SMILES | IC50 [1] [µM] | IC50 [2] [µM] |
| --- | --- | --- |
| NC/C(=C\F)COc1ccc(S(=O)(=O)CC2CCCN(C(=O)C3CCCC3)C2)cc1 (centres undefined) | 10 to 30 | > 30 |
| N#CC1(COCS(=O)(=O)c2ccc(OC/C(=C/F)CN)cc2)CCOCC1 | > 30 | > 30 |
| NC/C(=C\F)COc1ccc(S(=O)(=O)Cc2cnc(N3CCCC3)nc2)cc1 | > 30 | < 10 |
| N#CC12CCC(CS(=O)(=O)c3ccc(OC/C(=C/F)CN)cc3)(CC1)CC2 | > 30 | < 10 |
| C[C@H](CN1CCCC1=O)CS(=O)(=O)c1ccc(OC/C(=C/F)CN)cc1 | > 30 | > 30 |
| CC(C)C(=O)N1CCC(C)(CS(=O)(=O)c2ccc(OC/C(=C/F)CN)cc2)CC1 | > 30 | > 30 |
| CC1(CS(=O)(=O)c2ccc(OC/C(=C/F)CN)cc2)CCOCC1 | > 30 | < 10 |
| NC/C(=C\F)COc1ccc(S(=O)(=O)CC2CCOCC2)c(Cl)c1 |  | < 10 |
| CC(C)C(=O)N1CCC(C)(COCS(=O)(=O)c2ccc(OC/C(=C/F)CN)cc2)CC1 | > 30 | < 10 |
| NC/C(=C\F)COc1ccc(S(=O)(=O)Cc2ccc(C(=O)N3CCCC3)cc2)cc1 | > 30 | > 30 |
| CC(C)N(C)C(=O)C(C)(C)CS(=O)(=O)c1ccc(OC/C(=C/F)CN)cc1 | > 30 | > 30 |
| CO[C@H]1CC[C@H](CS(=O)(=O)c2ccc(OC/C(=C/F)CN)cc2)CC1 | 10 to 30 | < 10 |
| NC/C(=C\F)COc1ccc(S(=O)(=O)CC2CCN(C(=O)C34CC(F)(C3)C4)CC2)cc1 |  | < 10 |
| CC1(COCS(=O)(=O)c2ccc(OC/C(=C/F)CN)cc2)CCOCC1 | > 30 | < 10 |
| CC1(CS(=O)(=O)c2ccc(OC/C(=C/F)CN)cc2F)CCOCC1 | < 10 | < 10 |
| CC1(COCS(=O)(=O)c2ccc(OC/C(=C/F)CN)cc2)CCN(C(=O)C(C)(C)C)CC1 | > 30 | < 10 |
| NC/C(=C\F)COc1ccc(S(=O)(=O)CC2CCOCC2)cc1F | < 10 | < 10 |
| CC1(C(=O)N2CCN(CS(=O)(=O)c3ccc(OC/C(=C/F)CN)cc3)C(=O)C2)CCC1 |  | < 10 |
| CN(C)C(=O)C12CCC(CS(=O)(=O)c3ccc(OC/C(=C/F)CN)cc3)(CC1)CC2 | > 30 |  |
| NC/C(=C\F)COc1ccc(S(=O)(=O)CC2(O)CCOCC2)cc1 | > 30 | < 10 |
| NC/C(=C\F)COc1ccc(S(=O)(=O)C[C@H]2CC[C@H](NC(=O)C3CC3)CC2)cc1 | > 30 | < 10 |
| COCS(=O)(=O)c1ccc(OC/C(=C/F)CN)cc1 | > 30 |  |
| NC/C(=C\F)COc1ccc(S(=O)(=O)CC2CCN(C(=O)c3ccc(F)cc3)CC2)cc1 | < 10 | < 10 |
